Data on 18 molecules can be found in patent publication US9249114B2, “Thiazole derivatives” (Merck Patent GmbH, priority 2011, dated 2016).

By pIC50 is commonly meant the negative decadic logarithm of the IC50, by convention in mol/L.

One assay addresses IKKε (Homo sapiens (Human), UniProt Q14164). In words: IKKε kinase assay (384-well Flashplate). The format is biochemical. Particulars: 10 μM ATP, 2 hours at 30° C.; read-out: IKKε enzyme assay IC50. How it is done: Test for the Inhibition of IKKε
IKKε—Kinase Assay (IKKepsilon)
The kinase assay is performed either as 384-well Flashplate assay (for e.g. Topcount measurement). […] The reaction is stopped with 25 μl 200 mM EDTA. After 30 Min at room temperature the liquid is removed and each well washed thrice with 100 μl 0.9% sodium chloride solution. […] Radioactivity is measured with Topcount (PerkinElmer). Results (e.g. IC50-values) are calculated with program tools provided by the IT-department (e.g. AssayExplorer, Symyx).

The target in assay [1] is TANK binding kinase (TBK1) (Homo sapiens (Human), UniProt Q9UHD2). Description: TBK1 enzyme assay (384-well Flashplate kinase assay). In kind it is biochemical. The note with it: 10 μM ATP, 120 Min at 30° C. As to the method:
Test for the Inhibition of TBK1
The kinase assay is performed as 384-well Flashplate assay (for e.g. Topcount measurement. 0.6 nM TANK binding kinase (TBK1), 800 nM biotinylated MELK-derived peptide (Biotin-Ah-Ah-[…]) SEQ ID NO: 2 and 10 μM ATP (spiked with 0.25 μCi ^33P-ATP/well) are incubated in a total volume of 50 μl (10 mM MOPS, 10 mM Mg-acetat, 0.1 mM EGTA, 1 mM DTT, 0.02% Brij35, 0.1% BSA, pH 7.5) with or without test compound for 120 Min at 30° C. The reaction is stopped with 25 μl 200 mM EDTA. After 30 Min at room temperature the liquid is removed and each well washed thrice with 100 μl 0.9% sodium chloride solution. Nonspecific reaction is determined in presence of 100 nM Staurosporine. Radioactivity is measured in a Topcount (PerkinElmer). Results (e.g. IC50-values) are calculated with program tools provided by the IT-department (e.g. AssayExplorer, Symyx).

The subject of a further assay is phospho-IRF3 Ser 386. In words: Cell test: dose response inhibition of phospho-IRF3 Ser 386 in MDA-MB-468 cells. In kind it is cell-based. Particulars: Homo sapiens, Poly(I:C) stimulation, read-out: IC50 of reference inhibitor in phospho-IRF3 cell assay. An excerpt: Cell Test Dose Response Inhibition of Phospho-IRF3 […] cell/MDAMB468/INH/PHOS/IMAG/pIRF3 1. Scope Although TBK1 and IKKε are best known as key players in the innate immune response, recent findings have pointed towards a role for TBK1 and IKKi in Ras-induced oncogenic transformation. TBK1 was identified as a RalB effector in the Ras-like (Ral)-guanine nucleotide exchange factor (GEF) pathway that is required for Ras-induced transformation. TBK1 directly activates IRF3 which, upon phosphorylation, homodimerizes and translocates to the nucleus where it activates processes involved with inflammation, immune regulation, cell survival and proliferation. This assay has been devised in order to assess the efficacy/potency of TBK1/IKKε inhibitor compounds based on the immunocytochemical detection of nuclear localised phospho-IRF3, a target directly downstream of TBK1. […] 2. Assay Overview Day 1: MDA-MB-468 cells are detached with HyQ-Tase, counted, and seeded into a 384-well clear bottom TC-surface plate at density of 10,000 cells per well in a total volume of 35 ul complete medium. Alternatively cells are directly seeded from frozen vials. […] Day 3: The primary antibody is washed off, an AlexaFluor488-conjugated secondary is added, cells are counterstained with propidium iodide followed by image acquisition on IMX Ultra high content reader. […]

pIC50: −log10 of the molar value.

TANK binding kinase (TBK1), sequence (Q9UHD2 whole entry): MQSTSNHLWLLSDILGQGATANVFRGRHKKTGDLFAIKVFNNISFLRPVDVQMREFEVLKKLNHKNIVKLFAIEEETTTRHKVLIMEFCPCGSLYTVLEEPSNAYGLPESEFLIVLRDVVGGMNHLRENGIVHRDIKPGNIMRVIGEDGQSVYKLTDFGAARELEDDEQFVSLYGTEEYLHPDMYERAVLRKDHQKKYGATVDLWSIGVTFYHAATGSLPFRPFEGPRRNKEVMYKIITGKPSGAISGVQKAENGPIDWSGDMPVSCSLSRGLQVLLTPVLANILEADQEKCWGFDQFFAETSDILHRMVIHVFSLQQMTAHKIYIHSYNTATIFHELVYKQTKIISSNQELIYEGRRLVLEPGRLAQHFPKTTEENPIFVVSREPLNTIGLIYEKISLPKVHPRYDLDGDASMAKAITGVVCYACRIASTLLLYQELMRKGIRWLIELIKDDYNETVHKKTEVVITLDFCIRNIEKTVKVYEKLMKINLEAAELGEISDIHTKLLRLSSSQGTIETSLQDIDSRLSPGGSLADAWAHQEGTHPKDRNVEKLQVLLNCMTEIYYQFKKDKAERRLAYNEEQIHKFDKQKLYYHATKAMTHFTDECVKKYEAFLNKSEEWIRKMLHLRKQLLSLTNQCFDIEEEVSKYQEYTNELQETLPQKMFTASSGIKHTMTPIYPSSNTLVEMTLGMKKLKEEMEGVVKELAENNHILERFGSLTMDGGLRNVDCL
IKKε, sequence (Q14164 whole entry): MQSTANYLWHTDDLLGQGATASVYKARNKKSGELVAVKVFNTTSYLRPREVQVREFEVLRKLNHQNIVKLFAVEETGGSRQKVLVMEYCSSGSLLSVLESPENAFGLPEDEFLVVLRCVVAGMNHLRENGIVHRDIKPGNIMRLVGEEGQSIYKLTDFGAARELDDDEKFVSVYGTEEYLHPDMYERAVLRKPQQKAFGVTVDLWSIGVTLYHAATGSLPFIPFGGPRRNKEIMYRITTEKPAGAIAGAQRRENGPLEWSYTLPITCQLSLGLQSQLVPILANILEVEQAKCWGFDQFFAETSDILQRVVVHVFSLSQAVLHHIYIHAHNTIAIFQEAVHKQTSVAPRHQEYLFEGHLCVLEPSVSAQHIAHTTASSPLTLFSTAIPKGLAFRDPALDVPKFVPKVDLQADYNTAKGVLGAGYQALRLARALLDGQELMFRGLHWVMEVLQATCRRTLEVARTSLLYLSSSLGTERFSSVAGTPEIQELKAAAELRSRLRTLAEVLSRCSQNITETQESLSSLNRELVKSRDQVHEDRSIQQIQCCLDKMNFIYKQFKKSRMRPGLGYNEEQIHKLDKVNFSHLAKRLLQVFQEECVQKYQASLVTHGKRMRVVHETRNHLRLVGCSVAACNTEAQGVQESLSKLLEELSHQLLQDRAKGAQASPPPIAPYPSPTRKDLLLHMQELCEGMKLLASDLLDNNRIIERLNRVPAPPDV

Take `NC(=O)c1nc(-c2ccncc2)sc1NC(=O)c1ccco1` [Compound A60, 5-(2-furoylamino)-2-pyridin-4-yl-1,3-thiazole-4-carboxamide]: the negative logarithm of the IC50 (pIC50) at IKKε is 5.20; in assay [1], 5.43. The corresponding values for `COc1cnccc1-c1nc(C(N)=O)c(NC(=O)c2ccc(CN3CCN(C)CC3)cc2)s1` [Compound A21, 2-(3-methoxy-pyridin-4-yl)-5-[4-(4-methyl-piperazin-1-ylmethyl)-benzoylamino]-thiazole-4-carboxylic acid amide] are 7.85 and 7.34.

In the case of `Cc1cnccc1-c1nc(C(N)=O)c(NC(=O)c2ccc(CN3CCN(C)CC3)cc2)s1` [Compound A22, 2-(3-methyl-pyridin-4-yl)-5-[4-(4-methyl-piperazin-1-ylmethyl)-benzoylamino]-thiazole-4-carboxylic acid amide], the negative logarithm of the IC50 (pIC50) was 6.52 on IKKε and 6.46 in assay [1]. The corresponding values for `NC(=O)c1nc(-c2ccncc2)sc1NC(=O)c1ccsc1` [Compound A65, 2-pyridin-4-yl-5-[(3-thienylcarbonyl)amino]-1,3-thiazole-4-carboxamide] are 6.32 and 6.70.

Take `CC(=O)N1CCN(Cc2ccc(C(=O)Nc3sc(-c4ccncc4)nc3C(N)=O)cc2)CC1` [Compound A27, 5-[4-(4-acetyl-piperazin-1-ylmethyl)-benzoylamino]-2-pyridin-4-yl-thiazole-4-carboxylic acid amide]: the values for the pIC50 (on IKKε; in assay [1]) were 7.00 and 6.85, respectively. The corresponding values for `NC(=O)c1nc(-c2ccncc2)sc1NC(=O)c1cn[nH]c1` [Compound A42, 5-[(1H-pyrazole-4-carbonyl)-amino]-2-pyridin-4-yl-thiazole-4-carboxylic acid amide] are 6.14 and 5.57. The corresponding values for `CN1CCN(Cc2ccc(C(=O)Nc3sc(-c4ccncc4Cl)nc3C(N)=O)cc2)CC1` [Compound A20, 2-(3-chloro-pyridin-4-yl)-5-[4-(4-methyl-piperazin-1-ylmethyl)-benzoylamino]-thiazole-4-carboxylic acid amide] are 6.20 and 6.19.

In the case of `CN1CCN(Cc2ccc(C(=O)Nc3sc(-c4ccnc(F)c4)nc3C(N)=O)cc2)CC1` [Compound A6, 2-(2-fluoro-pyridin-4-yl)-5-[4-(4-methyl-piperazin-1-ylmethyl)-benzoylamino]-thiazole-4-carboxylic acid amide], the values for the pIC50 (on IKKε; in assay [1]) were 6.27 and 6.20, respectively. The matching figures for `CN1CCN(Cc2ccc(C(=O)Nc3sc(-c4ccncc4C(F)(F)F)nc3C(N)=O)cc2)CC1` [Compound A17, 5-[4-(4-methyl-piperazin-1-ylmethyl)-benzoylamino]-2-(3-trifluoromethyl-pyridin-4-yl)-thiazole-4-carboxylic acid amide]: 6.85 and 5.85.

For the molecule `CN(C)c1ccc(C(=O)Nc2sc(-c3ccncc3)nc2C(N)=O)cc1` [Compound A57, 5-{[4-(dimethylamino)benzoyl]amino}-2-pyridin-4-yl-1,3-thiazole-4-carboxamide], the pIC50 on IKKε is 5.80; in assay [1] it was 5.74. Consider `Cc1cc(-c2nc(C(N)=O)c(NC(=O)c3ccc(CN4CCN(C)CC4)cc3)s2)ccn1` [Compound A7, 5-[4-(4-methyl-piperazin-1-ylmethyl)-benzoylamino]-2-(2-methyl-pyridin-4-yl)-thiazole-4-carboxylic acid amide], for which the results for the pIC50 (on IKKε; in assay [1]) were 6.41 and 6.39, respectively. The corresponding values for `CN(C)Cc1ccc(C(=O)Nc2sc(-c3ccncc3)nc2C(N)=O)cc1` [Compound A40, 5-(4-dimethylaminomethyl-benzoylamino)-2-pyridin-4-yl-thiazole-4-carboxylic acid amide] are 6.55 and 5.90. The corresponding values for `CN1CCN(Cc2ccc(C(=O)Nc3sc(-c4ccncc4F)nc3C(N)=O)cc2)CC1` [Compound A19, 2-(3-fluoro-pyridin-4-yl)-5-[4-(4-methyl-piperazin-1-ylmethyl)-benzoylamino]-thiazole-4-carboxylic acid amide] are 6.55 and 6.43. For `CN1CCN(Cc2ccc(C(=O)Nc3sc(-c4ccncc4)nc3C(N)=O)cc2)CC1` [Compound A37, 5-[4-(4-methyl-piperazin-1-ylmethyl)-benzoylamino]-2-pyridin-4-yl-thiazole-4-carboxylic acid amide], the values for the pIC50 (on IKKε; in assay [1]) were 6.70 and 6.15, respectively.

As to `NC(=O)c1nc(-c2ccncc2)sc1NC(=O)c1ccc(N)cc1` [Compound A58, 5-[(4-aminobenzoyl)amino]-2-pyridin-4-yl-1,3-thiazole-4-carboxamide], the pIC50 at IKKε was 6.74; in assay [1] it was 6.96. Turning to `CN1CCC(Cc2ccc(C(=O)Nc3sc(-c4ccncc4)nc3C(N)=O)cc2)CC1` [Compound A26, 5-[4-(1-methyl-piperidin-4-ylmethyl)-benzoylamino]-2-pyridin-4-yl-thiazole-4-carboxylic acid amide], the pIC50 at IKKε is 7.51; in assay [1] it was 7.00. As for `O=C(NCCCNc1nc(Nc2cccc(NC(=O)N3CCCC3)c2)ncc1I)c1cccs1` [BX-795], in the assay with phospho-IRF3 Ser 386, the pIC50 was 6.10 to 6.70. Take `Cn1cccc1C(=O)Nc1sc(-c2ccncc2)nc1C(N)=O` [Compound A59, 5-{[(1-methyl-1H-pyrrol-2-yl)carbonyl]amino}-2-pyridin-4-yl-1,3-thiazole-4-carboxamide]: the pIC50 at IKKε was 5.92; in assay [1], 6.40.
